The assay concerns the target T1, CXCR3 (Homo sapiens, UniProt P49682).
T1 construct: expressed in transfected cells
T1 sequence (P49682 1-368): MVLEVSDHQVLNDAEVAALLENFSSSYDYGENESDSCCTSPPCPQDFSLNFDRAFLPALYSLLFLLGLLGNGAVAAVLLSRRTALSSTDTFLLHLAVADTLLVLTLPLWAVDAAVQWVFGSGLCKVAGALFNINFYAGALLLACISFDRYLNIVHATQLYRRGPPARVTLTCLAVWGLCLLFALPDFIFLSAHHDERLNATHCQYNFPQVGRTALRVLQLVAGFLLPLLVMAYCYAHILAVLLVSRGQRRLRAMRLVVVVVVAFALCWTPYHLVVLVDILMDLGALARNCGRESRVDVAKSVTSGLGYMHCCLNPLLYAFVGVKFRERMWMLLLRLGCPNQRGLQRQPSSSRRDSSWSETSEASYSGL
The assay can be described thus: CXCR3/IP-10 radioligand binding (125I-IP-10 competition, CXCR3.L1/2 cell membranes). The conditions noted are these: test compound 10 μmol/L, 125I-labeled IP-10 binding to CXCR3.L1/2 transfectant cell membrane. The text has this:
The activity of the compounds of the present invention can be assessed using a suitable assay, such as a receptor binding assay, a chemotaxis assays, an extracellular acidification assay or a calcium flux assay (see, for example, Hesselgesser et al., J. Biol. Chem. 273(25):15687-15692 (1998) and WO 98/02151). For example, as described herein, small organic molecule antagonists of CXCR3/IP-10 binding have been identified utilizing cells engineered to express recombinant human CXCR3 (CXCR3.L1/2) and which bind ^125I-IP-10 and chemotax in response to IP-10, Mig or I-TAC. Specifically, a high through-put receptor binding assay, which monitors ^125I-IP-10 binding to CXCR3.L1/2 cell membranes, was used to identify small molecule antagonists which block binding of IP-10, Mig or I-TAC to CXCR3.
CXCR3.L1/2 cells were pelleted by centrifugation and stored at −80° C. The cells were lysed by thawing and resuspending at about 1.5×10^7 cells/ml in a hypotonic buffer (5 m mol/L HEPES (pH 7.2), 2 mmol/L EDTA, 10 μg/ml each leupeptin, aprotinin, and chymostatin, and 100 μg/ml PMSF (all from Sigma, St. Louis)). Nuclei and cellular debris was removed by centrifugation ([…], at 4° C.) for 10 min. The supematant was transferred to chilled centrifuge tubes (Nalge, Rochester, N.Y.) and the membrane fraction was recovered by centrifugation (25,000 g at 4° C.) for 45 min. The membrane pellet was resuspended in freezing buffer (10 mM HEPES (pH 7.2), 300 mmol/L Sucrose, 5 μg/ml each of leupeptin, aprotinin, and chymostatin, and 10 μg/ml PMSF). The total protein concentration was determined using a coomassie blue staining protein concentration assay kit (BioRad). The membrane preparation was aliquoted and stored at −80° C. until time of use.
CXCR3/IP-10 binding was performed in 96-well polypropylene plates (Costar) in a final volume of 0.1 ml of HBB buffer (50 mmol/L Hepes pH 7.4, 1 mmol/L CaCl2, 5 mmol/L MgCl2, 0.02% sodium azide, 0.5% BSA (bovine serum albumin)) containing 1 to 5 μg of CXCR3.L1/2 transfectant cell membrane protein and 0.05 to 0.2 nmol/L ^125I-labeled IP-10 (NEN, Boston, Mass.). Competition binding experiments were performed by including variable concentrations of unlabeled IP-10 or test compound. Nonspecific binding was determined following the addition of a 250 nmol/L unlabelled IP-10. Samples were incubated for 60 min at room temperature, and bound and free tracer (^125I-IP10) were separated by filtration through 96-well GF/B filterplates (Packard) presoaked in 0.3% polyethyleneimine. The filters were washed in HBB further supplemented with 0.5 mol/L NaCl, dried, and the amount of bound radioactivity determined by liquid scintillation counting. The competition is presented as the percent specific binding as calculated by 100×[(S-B)/(T-B)], where S is the radioactivity bound for each sample, B is background binding, and T is total bound in the absence of competitors. Duplicates were used throughout the experiments.

Consider `CCN(CCN1CCN(Cc2cccc3ccccc23)C1=C(C#N)C#N)Cc1ccc(CN2CCN(CCO)CC2)cc1` [Compound 11, 1-[2-{N-Ethyl-(4-(4-(2-hydroxyethyl)piperazinyl)methylbenzyl)amino}ethyl]-3-(1-naphthylmethyl)-2-imidazolidinylidenepropanedinitrile], for which the % inhibition (in general, the relative decrease from the control value, in per cent) at 10 μmol/L (Table 5) is listed as 91%.
As for `CCN(CCN1CCN(Cc2cc(C)cc(C)c2)C1=C(C#N)C#N)C(=O)c1ccc(CN2CCCCC2)cc1` [Compound 26, 1-[2-{N-Ethyl-N-(4-(1-piperidinomethyl)benzoyl)amino}ethyl]-3-(3,5-dimethylbenzyl)-2-imidazolidinylidenepropanedinitrile], at 10 µM the inhibition (Table 6) was 64%.
With `N#CC(C#N)=C1N(CCN(Cc2cccc(CN3CCCCC3)c2)Cc2cccc(CN3CCCCC3)c2)CCN1Cc1cccc2ccccc12` [Compound 19, 1-[2-{N,N-Bis(3-piperidinomethylbenzyl)amino}ethyl]-3-(1-naphthylmethyl)-2-imidazolidinylidenepropanedinitrile], where the note is “Table 5”, the “% inhibition at 10 μmol/L” value was 68%.
As to `CCN(CCN1CCN(C(=O)c2cc(C)cc(C)c2)C1=C(C#N)C#N)Cc1ccc(CN2CCCCC2)cc1` [Compound 25, 1-[2-{N-Ethyl-N-(4-(1-piperidinomethyl)benzyl)amino}ethyl]-3-(3,5-dimethylbenzoyl)-2-imidazolidinylidenepropanedinitrile], for the setting “Table 6”, testing at 10 µM gave an inhibition of 99%.
Consider `CCN(CCN1CCN(Cc2cccc3ccccc23)C1=C(C#N)C#N)Cc1ccc(CN2CCCCC2)cc1` [Compound 2, 1-[2-{N-Ethyl-N-(4-piperidinomethylbenzyl)amino}ethyl]-3-(1-naphthylmethyl)-2-imidazolidinylidenepropanedinitrile], for which the “% inhibition at 10 μmol/L” value (Table 5) came to 96%.
On the same count and under the same terms, the figure for `CCN(CCN1CCN(Cc2cccc3ccccc23)C1=C(C#N)C#N)Cc1ccc(CN2CCN(C)CC2)cc1` [Compound 8, 1-[2-{N-Ethyl-N-(4-(4-methylpiperazinyl)methylbenzyl)amino}ethyl]-3-(1-naphthylmethyl)-2-imidazolidinylidenepropanedinitrile] is 86%.
Turning to `CCN(CCN1CCN(Cc2cc(Cl)cc(Cl)c2)C1=C(C#N)C#N)C(=O)c1ccc(CN2CCCCC2)cc1` [Compound 28, 1-[2-{N-Ethyl-N-(4-(1-piperidinomethyl)benzoyl)amino}ethyl]-3-(3,5-dichlorobenzyl)-2-imidazolidinylidenepropanedinitrile], 10 µM produced 41% inhibition (Table 6).
Still for that read-out and setting: the figure for `CCCNCc1ccc(C(=O)N(CC)CCN2CCN(Cc3cc(Cl)cc(Cl)c3)C2=C(C#N)C#N)cc1` [Compound 30, 1-[2-{N-Ethyl-N-(4-(1-propylaminomethyl)benzoyl)amino}ethyl]-3-(3,5-dichlorobenzyl)-2-imidazolidinylidenepropanedinitrile] is 73%; for `CCCNCc1ccc(CNCCN2CCN(Cc3cc(C)cc(C)c3)C2=C(C#N)C#N)cc1` [Compound 22, 1-[2-{N-(4-(1-Propylaminomethyl)benzyl)amino}ethyl]-3-(3,5-dimethylbenzyl)-2-imidazolidinylidenepropanedinitrile] it is 92%.
In the case of `CCCNCc1ccc(CN(CC)CCN2CCN(Cc3cccc4ccccc34)C2=C(C#N)C#N)cc1` [Compound 10, 1-[2-{N-Ethyl-N-(4-(N-propylamino)methylbenzyl)amino}ethyl]-3-(1-naphthylmethyl)-2-imidazolidinylidenepropanedinitrile], the “% inhibition at 10 μmol/L” value (Table 5) is given as 100%.
On to `CCN(CCN1CCN(Cc2cc(Cl)cc(Cl)c2)C1=C(C#N)C#N)Cc1ccc(CN2CCCCC2)cc1` [Compound 24, 1-[2-{N-Ethyl-N-(4-(1-piperidinomethyl)benzyl)amino}ethyl]-3-(3,5-dichlorobenzyl)-2-imidazolidinylidenepropanedinitrile], for which the inhibition (commonly how much of the control response was suppressed) at 10 µM (Table 6) came to 91%.
Still for that read-out and setting: next, `CCCNCc1ccc(C(=O)N(CC)CCN2CCN(Cc3cc(C)cc(C)c3)C2=C(C#N)C#N)cc1` [Compound 29, 1-[2-{N-Ethyl-N-(4-(-1-propylaminomethyl)benzoyl)amino}ethyl]-3-(3,5-dimethylbenzyl)-2-imidazolidinylidenepropanedinitrile]: 51%.
`CN(CCN1CCN(Cc2cccc3ccccc23)C1=C(C#N)C#N)Cc1ccc(CN2CCCCC2)cc1` [Compound 5, 1-[2-{N-Methyl-N-(4-piperidinomethylbenzyl)amino}ethyl]-3-(1-naphthylmethyl)-2-imidazolidinylidenepropanedinitrile]: under “Table 5”, the “% inhibition at 10 μmol/L” value turned out to be 99%.
The same measure, in the same setting: next, `CCN(CCN1CCN(Cc2cccc3ccccc23)C1=C(C#N)C#N)Cc1ccc(OCCN2CCCC2)cc1` [Compound 4, 1-[2-{N-Ethyl-N-{4-(2-(1-pyrrolidinyl)ethoxy)benzyl}amino}ethyl]-3-(1-naphthylmethyl)-2-imidazolidinylidenepropanedinitrile]: 76%.
Still for that read-out and setting: the figure for `CS(=O)(=O)N(CCN1CCN(Cc2cccc3ccccc23)C1=C(C#N)C#N)Cc1cccc(CN2CCCCC2)c1` [Compound 16, 1-[2-{N-Methanesulfonyl-N-(3-piperidinomethylbenzyl)amino}ethyl]-3-(1-naphthylmethyl)-2-imidazolidinylidenepropanedinitrile] is 89%.
Turning to `CCN(CCN1CCN(Cc2cccc3ccccc23)C1=C(C#N)C#N)C(=O)c1ccc(CN2CCCCC2)cc1` [Compound 27, 1-[2-{N-Ethyl-N-(4-(1-piperidinomethyl)benzoyl)amino}ethyl]-3-(1-naphthylmethyl)-2-imidazolidinylidenepropanedinitrile], where the note is “Table 6”, the inhibition at 10 µM came to 72%.
In turn, `CCCNCc1ccc(CN(CC)CCN2CCN(Cc3cc(C)cc(C)c3)C2=C(C#N)C#N)cc1` [Compound 21, 1-[2-{N-Ethyl-N-(4-(1-propylaminomethyl)benzyl)amino}ethyl]-3-(3,5-dimethylbenzyl)-2-imidazolidinylidenepropanedinitrile] displayed an inhibition at 10 µM (Table 5) of 99%.
For the molecule `N#CC(C#N)=C1N(CCN(Cc2ccccc2)Cc2cccc(CN3CCCCC3)c2)CCN1Cc1cccc2ccccc12` [Compound 18, 1-[2-{N-Benzyl-N-(3-piperidinomethylbenzyl)amino}ethyl]-3-(1-naphthylmethyl)-2-imidazolidinylidenepropanedinitrile], the “% inhibition at 10 μmol/L” value (Table 5) was 67%.
Same read-out and setting: next, `N#CC(C#N)=C1N(CCN(Cc2cccc(CN3CCCCC3)c2)C(=O)c2ccco2)CCN1Cc1cccc2ccccc12` [Compound 14, 1-[2-{N-Furoyl-N-(3-piperidinomethylbenzyl)amino}ethyl]-3-(1-naphthylmethyl)-2-imidazolidinylidenepropanedinitrile]: 85%; `CCN(CCN1CCN(Cc2cccc3ccccc23)C1=C(C#N)C#N)Cc1ccc(CN2CCOCC2)cc1` [Compound 7, 1-[2-{N-Ethyl-N-(4-morpholinomethylbenzyl)amino}ethyl]-3-(1-naphthylmethyl)-2-imidazolidinylidenepropanedinitrile]: 92%; `N#CC(C#N)=C1N(CCN(Cc2cccc(CN3CCCCC3)c2)C(=O)c2ccccc2)CCN1Cc1cccc2ccccc12` [Compound 13, 1-[2-{N-Benzoyl-N-(3-piperidinomethylbenzyl)amino}ethyl]-3-(1-naphthylmethyl)-2-imidazolidinylidenepropanedinitrile]: 61%.

(Values after patent US6469002B1, “Imidazolidine compounds” (Millennium Pharmaceuticals, Inc., priority 2001, dated 2002).)
